{
  "source": "patent US20230320967A1",
  "about": "“COMPOSITION, USE OF THE COMPOSITION, COSMETIC METHOD FOR MODULATING THE PRODUCTION OF SEBUM” (CHEMYUNION LTDA., priority 2020, published 2023)",
  "key": {"SEBO662AR cell model [1]": {"test_system": "SEBO662AR cell model", "assay": "Cytotoxicity in vitro (non-cytotoxic concentration)", "type": "cell-based, human", "conditions": "SEBO662AR study"}, "[2]": {"test_system": "skin oiliness (sebum) of female volunteers with mixed or oily skin", "assay": "Clinical testing: face oiliness by sebum-metric index, Sebumeter SM 815", "type": "in vivo, human", "conditions": "0.01% w/w in cosmetic base (BC-tripeptide), twice a day, 20 female volunteers", "method": "For the clinical efficacy evaluation, the tripeptide (Glu-Val-Phe) was applied in a cosmetic base (BC) at a concentration of 0.01% (w/w) and compared to a placebo base, without active (Table 2).\nThe study was conducted with 20 female volunteers, between 18 and 50 years old, with mixed or oily skin, oily skin with a sebum-metric index above 100, who used the product (BC-placebo or BC-tripeptide) twice a day (morning and evening) for 28 days.\nThe participants were referred to the Instrumental Sector for acclimatizing for at least 20 minutes, in a room with controlled temperature and humidity (T=20±2° C. and RH=50±5%). After the acclimatizing period, sebum-metrics measurements were performed on the forehead. […]\nThe Sebumeter photometrically measures the increase in transparency of a special plastic strip that becomes translucent when coated with sebum. […] The strip is supported by a mirror which presses it against the skin of the region to be evaluated with a fixed pressure of 10N by means of a spring. […] The strip transparency is evaluated by a photocell present in the device where the plastic strip is inserted, and the light transmission represents the amount of sebum per area and the results are expressed in absolute values (μg sebum/cm^2). […]"}, "SEBO662AR cell model [3]": {"test_system": "SEBO662AR cell model", "assay": "Sebum production inhibition in SEBO662AR sebocyte model, androgen-free lipogenic medium, Bodipy lipid droplet imaging", "type": "cell-based, human", "conditions": "500 micromolar, comparable to cerulenin 10 micromolar", "method": "Sebocytes are cells found in the sebaceous glands and that, in the differentiation process, accumulate lipid droplets in their interior. The SEBO662AR cell model is an immortalized lineage of human sebocytes that responds to lipogenic stimuli and that can be used to select potential sebum production inhibitors.\nA sebum production inhibition study was conducted in the SEBO662AR cell model cultivated in androgen-free lipogenic medium, and the formation of droplets was monitored by using Bodipy® fluorescent probes and image analysis. As an inhibition reference, cerulenin was applied at a concentration of 10 micromolar—a fatty acid synthase inhibitor which, although effective in reducing sebum production, is a very labile molecule as it has unsaturations and an epoxy group in its structure, so that its use is restricted to laboratory testing."}},
  "note": "Peptide text beside a SMILES is read from it.",
  "data": [
    {"smiles": "CC(C)[C@H](NC(=O)[C@@H](N)CCC(=O)O)C(=O)N[C@@H](Cc1ccccc1)C(=O)O", "note": "[SEQ ID No. 1, H-Glu-Val-Phe-OH] (H-Glu-Val-Phe-OH)", "values": [
      {"measurement": "higher non-cytotoxic concentration", "setting": "SEBO662AR cell model [1]", "value": 500, "unit": "µM"},
      {"measurement": "decrease of the average of the sebum-metric indices vs initial time (D0)", "setting": "[2]; after 14 days", "value": 31.54, "unit": "%"},
      {"measurement": "reduction of average oiliness vs initial time (D0)", "setting": "[2]; after 28 days", "value": 29.75, "unit": "%"},
      {"measurement": "reduction in sebum production", "setting": "SEBO662AR cell model [3]", "value": 28, "unit": "%"}
    ]}
  ]
}
